From patent US9187426B2, “Organic compounds” (Novartis AG, priority 2008, dated 2015)
pIC50: −log10 of the molar value. Structures can show the parent of a compound that is named as a salt.

Legend:
[1] = biological target: T1, Stearoyl-CoA Desaturase (SCD1) (Mus musculus, UniProt P13516); assay: SCD microsomal assay: release of 3H2O from [9,10-3H]stearoyl-CoA in mouse liver microsomes; assay type: biochemical; settings: 15 min incubation, 25° C.
T1 construct: Reactions are started by adding 50 μL of microsomes (1.25 mg/mL); from tissue; host or cells: liver microsomes of male ICR outbred mice on a high-carbohydrate, low-fat diet
T1 sequence (P13516 1-355): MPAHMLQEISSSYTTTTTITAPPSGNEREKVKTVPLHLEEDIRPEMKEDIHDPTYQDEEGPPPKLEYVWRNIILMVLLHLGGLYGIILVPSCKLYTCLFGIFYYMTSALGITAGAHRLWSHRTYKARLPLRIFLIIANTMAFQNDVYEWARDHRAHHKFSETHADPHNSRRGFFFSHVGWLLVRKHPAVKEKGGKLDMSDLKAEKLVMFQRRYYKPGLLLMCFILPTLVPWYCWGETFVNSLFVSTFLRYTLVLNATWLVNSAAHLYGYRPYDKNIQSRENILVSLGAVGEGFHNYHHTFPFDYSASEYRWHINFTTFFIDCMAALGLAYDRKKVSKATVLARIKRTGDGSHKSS
Description: Measuring Stearoyl-CoA Desaturase Inhibition Activity of a Test Compound Using Mouse Liver Microsomes
The identification of compounds of the invention as SCD inhibitors was readily accomplished using the SCD microsomal assay procedure described in Shanklin J. and Summerville C., Proc. Natl. Acad. Sci. USA (1991), Vol. 88, pp. 2510-2514.
Male ICR outbread mice, on a high-carbohydrate, low fat diet, under light halothane (15% in mineral oil) anesthesia are sacrificed by exsanguination during periods of high enzyme activity. Livers are immediately rinsed with cold 0.9% NaCl solution, weighed and minced with scissors. All procedures are performed at 4° C. unless specified otherwise. Livers are homogenized in a solution (1/3 w/v) containing 0.25 M sucrose, 62 mM potassium phosphate buffer (pH 7.0), 0.15 M KCl, 15 mM N-acetyleysteine, 5 mM MgCl2, and 0.1 mM EDTA using 4 strokes of a Potter-Elvehjem tissue homogenizer. The homogenate is centrifuged at 10,400×g for 20 min to eliminate mitochondria and cellular debris. The supernatant is filtered through a 3-layer cheesecloth and centrifuged at 105,000×g for 60 min. The microsomal pellet is gently resuspended in the same homogenization solution with a small glass/teflon homogenizer and stored at −70° C. The absence of mitochondrial contamination is enzymatically assessed. The protein concentration is measured using bovine serum albumin as the standard.
Desaturase activity is measured as the release of ^3H2O from [9,10-^3H]stearoyl-CoA. Reactions per assay point conditions are as follows: 2 μL 1.5 mM stearoyl-CoA, 0.25 μL 1 mCi/mL ^3H stearoyl CoA, 10 μL 20 mM NADH, 36.75 μL 0.1 M PK buffer (K2HPO4/NaH2PO4, pH 7.2). The test compound or control solution is added in a 1 μL volume. Reactions are started by adding 50 μL of microsomes (1.25 mg/mL). The plates are mixed and after 15 min incubation on a heating block (25° C.), the reactions are stopped by the addition of 10 μL 60% PCA. An aliquot of 100 μL is then transferred to a filter plate pretreated with charcoal and the plate centrifuged at 4000 rpm for 1 minute. The flow through containing the ^3H2O released by the SCD1 desaturation reaction is added to scintillation fluid and the radioactivity measured in a Packard TopCount. The data is analysed to identify the IC50 for test compounds and reference compounds.

`COc1cccc(C(=O)Nc2cc(C(=O)NCc3ccccc3)ccn2)c1` [Example 6.4, N-benzyl-2-(3-methoxybenzamido)isonicotinamide] showed a pIC50 [1] of 6.89 and a melting point of 95 to 96 °C.

In the case of `O=C(NCc1ccccc1)c1ccnc(NC(=O)c2cc(F)cc(F)c2)c1` [Example 6.8, N-benzyl-2-(3,5-difluorobenzamido)isonicotinamide], the pIC50 [1] was 6.39 and the melting point was 185 to 187 °C.

Work on `CN(C)c1ccc(C(=O)Nc2cc(C(=O)NCc3ccccc3)ccn2)cc1` [Example 6.11, N-benzyl-2-(4-(dimethylamino)benzamido)isonicotinamide] yielded a pIC50 [1] of 7.70 and a melting point of 160 to 165 °C.

Work on `O=C(Nc1cc(-c2nc(Cc3ccccc3)c[nH]2)ccn1)c1ccccc1` [Example 10.2, N-(4-(4-benzyl-1H-imidazol-2-yl)pyridin-2-yl)benzamide] yielded a pIC50 [1] of 6.77 and a melting point of 110 to 112 °C.

`O=C(NCc1cocn1)c1ccnc(N2CCN(Cc3ccc(F)cc3)C2=O)c1` [Example 14, 2-(3-(4-fluorobenzyl)-2-oxoimidazolidin-1-yl)-N-(oxazol-4-ylmethyl)isonicotinamide] showed a pIC50 [1] of 6.70 and a melting point of 197 to 199 °C.

Work on `Cc1cnc(CNC(=O)c2ccnc(N3CCN(Cc4ccc(F)cc4)C3=O)c2)cn1` [Example 14.2, 2-(3-(4-fluorobenzyl)-2-oxoimidazolidin-1-yl)-N-((5-methylpyrazin-2-yl)methyl)isonicotinamide] yielded a pIC50 [1] of 7.10 and a melting point of 169 to 171 °C.

Molecule `Cn1cnc(CNC(=O)c2ccnc(N3CCN(Cc4ccc(F)cc4)C3=O)c2)c1` [Example 14.5, 2-(3-(4-fluorobenzyl)-2-oxoimidazolidin-1-yl)-N-((1-methyl-1H-imidazol-4-yl)methyl)isonicotinamide] has a pIC50 [1] of 6.72 and a melting point of 174 to 176 °C.

`Cc1cc(CNC(=O)c2ccnc(N3CCN(Cc4ccc(F)cc4)C3=O)c2)no1` [Example 14.10, 2-(3-(4-fluorobenzyl)-2-oxoimidazolidin-1-yl)-N-((5-methylisoxazol-3-yl)methyl)isonicotinamide] gave a pIC50 [1] of 6.59 and a melting point of 153 to 155 °C.

`O=C(NCc1ccccn1)c1ccnc(N2CCN(Cc3ccc(F)cc3)C2=O)c1` [Example 15.3, 2-(3-(4-fluorobenzyl)-2-oxoimidazolidin-1-yl)-N-(pyridin-2-ylmethyl)isonicotinamide dihydrochloride] showed a pIC50 [1] of 7.15.

In the case of `O=C(NCc1ccc(F)cc1)c1ccnc(N2CCN(Cc3ccc(F)cc3)C2=O)c1` [Example 15.4, N-(4-fluorobenzyl)-2-(3-(4-fluorobenzyl)-2-oxoimidazolidin-1-yl)isonicotinamide], the pIC50 [1] was 7.70 and the melting point was 173 to 175 °C.

`O=C(NCc1ccncc1)c1ccnc(N2CCN(CC3CC3)C2=O)c1` [Example 15.11, 2-(3-(cyclopropylmethyl)-2-oxoimidazolidin-1-yl)-N-(pyridin-4-ylmethyl)isonicotinamide] gave a pIC50 [1] of 6.17 and a melting point of 160 to 162 °C.

`O=C(NCc1ccc(F)c(F)c1)c1ccnc(N2CCN(Cc3cccnc3)C2=O)c1` [Example 15.17, N-(3,4-difluorobenzyl)-2-(2-oxo-3-(pyridin-3-ylmethyl)imidazolidin-1-yl)isonicotinamide] showed a pIC50 [1] of 6.59 and a melting point of 178 to 180 °C.

Molecule `O=C(NCc1nccs1)c1ccnc(N2CCN(Cc3ccc(C(F)(F)F)cc3)C2=O)c1` [Example 23, 2-(2-Oxo-3-(4-(trifluoromethyl)benzyl)imidazolidin-1-yl)-N-(thiazol-2-ylmethyl)isonicotinamide] has a pIC50 [1] of 8.00 and a melting point of 139 to 141 °C.

`Cc1cc(CNC(=O)c2ccnc(-n3cnn(Cc4ccc(F)c(F)c4)c3=O)c2)no1` [Example 24, 2-(1-(3,4-Difluorobenzyl)-5-oxo-1H-1,2,4-triazol-4(5H)-yl)-N-((5-methylisoxazol-3-yl)methyl)-isonicotinamide] showed a pIC50 [1] of 7.70 and a melting point of 160 to 161 °C.

With `O=C(NCc1ccccn1)c1ccnc(N2CCN(Cc3ccc(F)c(F)c3)C2=O)c1` [Example 25, 2-(3-(3,4-Difluorobenzyl)-2-oxoimidazolidin-1-yl)-N-(pyridin-2-ylmethyl)-isonicotinamide] the pIC50 [1] was 7.70 and the melting point was 99 to 101 °C.

For `O=C(NCc1ccccn1)c1ccnc(N2CCN(Cc3ccc(C(F)(F)F)cc3)C2=O)c1` [Example 26.12, 2-(2-Oxo-3-(4-(trifluoromethyl)benzyl)imidazolidin-1-yl)-N-(pyridin-2-ylmethyl)-isonicotinamide], the pIC50 [1] was 8.00 and the melting point was 161 to 163 °C.

`Cc1cc(CNC(=O)c2ccnc(N3CCN(Cc4ccc(OC(F)(F)F)cc4)C3=O)c2)no1` [Example 26.13, N-((5-Methylisoxazol-3-yl)methyl)-2-(2-oxo-3-(4-(trifluoromethoxy)-benzyl)imidazolidin-1-yl)isonicotinamide] showed a pIC50 [1] of 8.00 and a melting point of 129 to 130 °C.

`O=C(NCc1ccccn1)c1ccnc(N2CCN(Cc3ccc(OC(F)(F)F)cc3)C2=O)c1` [Example 26.15, 2-(2-Oxo-3-(4-(trifluoromethoxy)benzyl)imidazolidin-1-yl)-N-(pyridin-2-ylmethyl)-isonicotinamide] showed a pIC50 [1] of 7.30 and a melting point of 123 to 125 °C.

`Cc1cc(CNC(=O)c2ccnc(N3CCN(Cc4ccc(C(F)(F)F)cc4)C3=O)c2)no1` [Example 26.18, N-((5-Methylisoxazol-3-yl)methyl)-2-(2-oxo-3-(4-(trifluoromethyl)-benzyl)imidazolidin-1-yl)isonicotinamide] gave a pIC50 [1] of 8.00 and a melting point of 153 to 155 °C.

In the case of `O=C(NCc1cncs1)c1ccnc(N2CCN(Cc3ccc(C(F)(F)F)cc3)C2=O)c1` [Example 26.19, 2-(2-Oxo-3-(4-(trifluoromethyl)benzyl)imidazolidin-1-yl)-N-(thiazol-5-ylmethyl)-isonicotinamide], the pIC50 [1] was 8.00 and the melting point was 163 to 165 °C.

Molecule `Cc1cc(CNC(=O)c2ccnc(-n3cnn(Cc4ccc(F)cc4)c3=O)c2)no1` [Example 26.22, 2-(1-(4-Fluorobenzyl)-5-oxo-1H-1,2,4-triazol-4(5H)-yl)-N-((5-methylisoxazol-3-yl)methyl)-isonicotinamide] has a pIC50 [1] of 8.00 and a melting point of 198 to 200 °C.

In the case of `Cc1cc(CNC(=O)c2ccnc(N3CCN(Cc4ccc(F)c(F)c4)C3=O)c2)no1` [Example 26.23, 2-(3-(3,4-Difluorobenzyl)-2-oxoimidazolidin-1-yl)-N-((5-methylisoxazol-3-yl)methyl)-isonicotinamide], the pIC50 [1] was 8.00 and the melting point was 153 to 155 °C.

In the case of `O=C(NCc1cncs1)c1ccnc(-n2cnn(Cc3ccc(F)cc3)c2=O)c1` [Example 26.26, 2-(1-(4-Fluorobenzyl)-5-oxo-1H-1,2,4-triazol-4(5H)-yl)-N-(thiazol-5-ylmethyl)-isonicotinamide], the melting point was 181 to 183 °C.

With `O=C(NCc1nccs1)c1ccnc(-n2cnn(Cc3ccc(F)c(F)c3)c2=O)c1` [Example 26.28, 2-(1-(3,4-Difluorobenzyl)-5-oxo-1H-1,2,4-triazol-4(5H)-yl)-N-(thiazol-2-ylmethyl)-isonicotinamide] the melting point was 161 to 163 °C.

Molecule `O=C(NCc1ccccn1)c1ccnc(-n2cnn(Cc3ccc(F)c(F)c3)c2=O)c1` [Example 26.29, 2-(1-(3,4-Difluorobenzyl)-5-oxo-1H-1,2,4-triazol-4(5H)-yl)-N-(pyridin-2-ylmethyl)-isonicotinamide] has a pIC50 [1] of 7.52.

`O=C(NCc1cnc(Cl)s1)c1ccnc(N2CCN(Cc3ccc(F)c(F)c3)C2=O)c1` [Example 26.33, N-((2-Chlorothiazol-5-yl)methyl)-2-(3-(3,4-difluorobenzyl)-2-oxoimidazolidin-1-yl)isonicotinamide] showed a melting point of 161 to 163 °C.

With `O=C(NCc1cnc(Cl)s1)c1ccnc(N2CCN(Cc3ccc(OC(F)(F)F)cc3)C2=O)c1` [Example 26.34, N-((2-Chlorothiazol-5-yl)methyl)-2-(2-oxo-3-(4-(trifluoromethoxy)-benzyl)imidazolidin-1-yl)isonicotinamide] the melting point was 184 to 186 °C.
